Assay results published in PMC11249646, “Small-Molecule Disruptors of the Interaction between Calcium- and Integrin-Binding Protein 1 and Integrin αIIbβ3 as Novel Antiplatelet Agents” (ACS Pharmacology & Translational Science, 2024).
Like-named read-outs stand apart in the source and are kept apart here.

Tests used:
[1] = molecular target: T1, CIB1 and αIIb interaction (CIB1-GST : F-αIIb peptide) (Homo sapiens, UniProt Q99828); test: FP assay, 1536-well qHTS format (primary and confirmatory screen); format: binding; conditions: for Curve Class (confirmatory screen) / CONFIRMATORY SCREEN Curve Class: qHTS curve class
T1 construct: made in house; host or cells: BL-21 plus RIL cells (E. coli)
T1 sequence (Q99828 1-191): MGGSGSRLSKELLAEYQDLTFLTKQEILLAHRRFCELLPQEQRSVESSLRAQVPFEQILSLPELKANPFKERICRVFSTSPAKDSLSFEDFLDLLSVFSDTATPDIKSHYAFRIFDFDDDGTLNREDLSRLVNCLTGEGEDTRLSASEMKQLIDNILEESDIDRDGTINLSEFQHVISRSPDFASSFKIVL

[2] = molecular target: T2, GST-CIB1 : F-scrambled peptide (Homo sapiens, UniProt Q99828); test: FP scrambled-peptide counter screen, 1536-well format; format: binding; conditions: for Curve Class (counterscreen) / COUNTERSCREEN Curve Class: qHTS curve class; for IC50: read-out: IC50 [μM] (counterscreen)
T2 construct: made in house; host or cells: BL-21 plus RIL cells (E. coli)
T2 sequence (Q99828 1-191): T1 sequence (Q99828 1-191)

[3] = Table S3, confirmatory screen, YES/NO call
[4] = Table S3, confirmatory screen, a negative sign marks inhibitory curves
[5] = Table S3, confirmatory screen, negative = inhibition
[6] = Table S3, confirmatory screen, read-out: IC50 [μM] (confirmatory screen)
[7] = qHTS FP screen hits, Table S2, negative = inhibition
[8] = qHTS FP screen hits, Table S2, one class per curve where COUNT > 1, negative sign = inhibitory curve
[9] = qHTS FP screen hits, Table S2, read-out: IC50
[10] = Table S3, counterscreen, a negative sign marks inhibitory curves
[11] = Table S3, counterscreen, negative = inhibition
[12] = qHTS primary screen hits, Table S2, negative = inhibition
[13] = qHTS primary screen hits, Table S2, negative sign = inhibitory curve, several classes where COUNT > 1
[14] = qHTS primary screen hits, Table S2, read-out: IC50
[15] = confirmatory screen, negative sign = inhibitory curve
[16] = confirmatory screen, read-out: IC50 [μM] (confirmatory screen)
[17] = counterscreen, negative sign = inhibitory curve
[18] = scrambled-peptide counterscreen

Compound | Confirm? (confirmatory screen) [1, 3] | Curve Class (confirmatory screen) [1, 4] | Efficacy (%) (confirmatory screen) [1, 5] | IC50 [1, 6] [µM] | Efficacy (%) [1, 7] [%] | Curve Class [1, 8] | IC50 [1, 9] [µM] | Curve Class (counterscreen) [2, 10] | Efficacy (%) (counterscreen) [2, 11] | IC50 ([2]; Table S3, counterscreen) [µM] | Efficacy (%) [1, 12] [%] | IC50 [1, 14] [µM] | further results
COc1ccccc1Nc1ccc2c(O)cc(S(=O)(=O)O)cc2c1.O=C(O)C(F)(F)F [NCGC00372954-01] | YES | -2.1 | -93 | 25.1 | -41 | -2.2 | 35.5 | -2.4 | -89 | 22.4 | – | – | –
O=C(O)C(F)(F)F.O=C1CC(c2ccccc2Cl)c2sc(N3CCOCC3)nc2N1 (stereo not shown) [NCGC00488256-02] | YES | -2.4 | -49 | 50.1 | – | – | – | -2.2 | -77 | 31.6 | -72 | 79.4 | Curve Class [1, 13]: -2.2
COc1ccccc1Nc1cc2ccccc2c(O)n1 [NCGC00183215-01] | YES | -2.1 | -92 | 39.8 | – | – | – | -2.1 | -136 | 35.5 | -67 | 50.1 | Curve Class [1, 13]: -2.2
C=CC1=C(C)c2cc3[nH]c(cc4nc(cc5[nH]c(cc1n2)c(C)c5CCC(=O)O)C(CCC(=O)O)=C4C)c(C)c3C=C [NCGC00015844-07] | – | – | – | – | – | – | – | – | – | – | – | – | Efficacy (%) (confirmatory screen) ([1]; confirmatory screen): -112%; Confirm? (confirmatory screen) ([1]; confirmatory screen, YES/NO): YES; Curve Class (confirmatory screen) [1, 15]: -1.1; IC50 [1, 16]: 25.1 µM; Efficacy (%) (counterscreen) ([2]; counterscreen): -94%; Curve Class (counterscreen) [2, 17]: -2.2; IC50 ([2]; counterscreen): 25.1 µM
Oc1ccc(Cl)cc1Cc1cc(Cl)ccc1O [NCGC00091325-09] | – | – | – | – | -86 | -2.2 | 79.4 | – | – | – | – | – | Efficacy (%) (confirmatory screen) ([1]; confirmatory screen): -77%; Confirm? (confirmatory screen) ([1]; confirmatory screen, YES/NO): YES; Curve Class (confirmatory screen) [1, 15]: -2.2; IC50 [1, 16]: 44.7 µM; Efficacy (%) (counterscreen) ([2]; counterscreen): -38%; Curve Class (counterscreen) [2, 17]: -1.2; IC50 ([2]; counterscreen): 10 µM
CN(C)C(=S)SSC(=S)N(C)C [NCGC00091563-12] | – | – | – | – | -71 | -2.2 | – | – | – | – | – | – | IC50 ([1]; IC50 [μM]): 39.8 µM; CONFIRMATORY SCREEN Confirm? ([1]; confirmatory screen, YES/NO call): YES; CONFIRMATORY SCREEN Curve Class [1, 15]: -1.2; CONFIRMATORY SCREEN Efficacy (%) ([1]; confirmatory screen, negative = inhibition): -67%; IC50 ([1]; confirmatory screen, read-out: CONFIRMATORY SCREEN IC50): 7.1 µM; COUNTERSCREEN Efficacy (%) [2, 18]: 14%; COUNTERSCREEN Confirm? ([2]; scrambled-peptide counterscreen, YES/NO call): YES; COUNTERSCREEN Curve Class [2, 18]: 4
OC[C@H]1O[C@@H](Oc2ccc(O)c3cccc(O)c23)[C@H](O)[C@@H](O)[C@@H]1O [NCGC00385147-01] | YES | -1.1 | -85 | 11.2 | -54 | -2.2 | 31.6 | -1.1 | -86 | 15.8 | – | – | –
Cc1cc(NS(=O)(=O)c2ccc(NC(=O)Cc3ccc(F)c(Cl)c3)cc2)no1.O=C(O)C(F)(F)F [NCGC00244873-01] | – | – | – | – | -25 | – | 10 | – | – | – | – | – | CONFIRMATORY SCREEN Efficacy (%) ([1]; confirmatory screen): -48%; CONFIRMATORY SCREEN Curve Class ([1]; confirmatory screen): 4; COUNTERSCREEN Efficacy (%) ([2]; counterscreen): -17%; COUNTERSCREEN Curve Class ([2]; counterscreen): 4
Cc1ccc(C(=O)NC(c2ccco2)c2cc(Cl)c3cccnc3c2O)cc1 (stereo not shown) [NCGC00188372-01] | – | 4 | -11 | – | – | – | – | – | 42 | 89.1 | -23 | 31.6 | Curve Class ([1]; qHTS primary screen hits, Table S2, negative sign = inhibitory curve): -1.4
CN(C)CCN1C(=O)c2cccc3cc(N)cc(c23)C1=O [NCGC00346513-01] | – | – | – | – | – | – | – | – | – | – | -32 | 1.1 | CONFIRMATORY SCREEN Efficacy (%) ([1]; confirmatory screen): -50%; CONFIRMATORY SCREEN Curve Class ([1]; confirmatory screen): 4; Curve Class [1, 13]: -1.2; COUNTERSCREEN Efficacy (%) ([2]; counterscreen): -24%; COUNTERSCREEN Curve Class ([2]; counterscreen): 4
CN1C[C@H](CNC(=O)OCc2ccccc2)C[C@@H]2c3cccc4c3c(cn4C)C[C@H]21 [NCGC00017257-10] | – | – | – | – | -75 | – | 36.4 | – | – | – | – | – | Efficacy (%) (confirmatory screen) ([1]; confirmatory screen): -126%; Confirm? (confirmatory screen) ([1]; confirmatory screen, YES/NO): YES; Curve Class (confirmatory screen) [1, 15]: -2.1; IC50 [1, 16]: 44.7 µM; Efficacy (%) (counterscreen) ([2]; counterscreen): -32%; Confirm? (counterscreen) ([2]; counterscreen, YES/NO): YES; Curve Class (counterscreen) [2, 17]: -2.4; IC50 ([2]; counterscreen): 63.1 µM
